Test results published in PubChem BioAssay AID1259246 (Broad Institute, 2017).
Values joined by “and” are separate entries in the source; they are usually repeats but may differ in a detail not shown here. Equal entries are not always repeated. Inconclusive results are not listed. Active and inactive are the calls of the source.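 How the source made its calls: active means valid dose-response fit whose half-maximal growth-inhibiting concentration is at or below a set limit above the top tested dose; inconclusive means flat fit with effect between 30 and 70%, or poor fit; inactive means half-maximal concentration above a set limit.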

Tested on: Clostridioides difficile clinical isolate growth, OD600, 24 h
Assay: antibacterial activity against Clostridioides difficile – 10-point retest, dose response (AID 1259246)

SMILES	IC50
C[C@@H]1CN([C@@H](C)CO)C(=O)c2cccc(NC(=O)Nc3ccc4c(c3)OCO4)c2O[C@@H]1CN(C)Cc1ccc(-c2ccccc2)cc1	3.03 µM
COc1ccc(NC(=O)Nc2cccc3c2O[C@H](CN(C)Cc2ccc(C(F)(F)F)cc2)[C@H](C)CN([C@@H](C)CO)C3=O)cc1	25.6 µM
CO[C@@H]1CN(C)C(=O)c2ccc(NC(=O)c3ccc(-c4ccccc4)cc3)cc2OC[C@@H](C)NC[C@@H]1C	62.8 µM
O=C(C[C@H]1CC[C@@H]2[C@H](COC[C@@H](O)CN2S(=O)(=O)c2ccccc2)O1)NCC1CCCCC1	52.4 µM
Cc1cc(C(=O)Nc2cccc3c2O[C@@H](CN(C)Cc2ccc(-c4ccccc4)cc2)[C@H](C)CN([C@@H](C)CO)C3=O)n(C)n1	17.5 µM
C[C@@H]1CN([C@@H](C)CO)C(=O)c2cccc(NC(=O)Nc3ccc4c(c3)OCO4)c2O[C@@H]1CN(C)Cc1ccc(Oc2ccccc2)cc1	< 0.26 µM
O=C(C[C@@H]1CC[C@H]2[C@@H](COC[C@H](O)CN2S(=O)(=O)c2ccccc2)O1)NCC1CCCCC1	35.1 µM
C[C@H](CO)N1C[C@H](C)[C@@H](CN(C)Cc2ccc(C(=O)O)cc2)Oc2cc(/C=C/c3ccccc3)ccc2S1(=O)=O	> 120 µM (inactive)
CO[C@@H](CN(C)C(=O)C1CCOCC1)[C@@H](C)CN(C(=O)Nc1ccc(C(F)(F)F)cc1)[C@H](C)CO	4.1 µM
COc1ccc(S(=O)(=O)N(C)C[C@H]2Oc3ccc(NC(=O)Nc4ccc(C(F)(F)F)cc4)cc3C(=O)N([C@@H](C)CO)C[C@@H]2C)cc1	51.2 µM
CNC[C@@H]1Oc2ccc(NC(=O)Nc3ccccc3)cc2CC(=O)N([C@@H](C)CO)C[C@H]1C	> 270 µM (inactive)
C[C@@H]1CN([C@@H](C)CO)S(=O)(=O)c2ccc(C#CCC3CCCC3)cc2O[C@H]1CN(C)Cc1ccc(C(=O)O)cc1	32.4 µM
C[C@@H]1CCCCO[C@@H](CN(C)CC2CCCCC2)[C@@H](C)CN([C@@H](C)CO)C(=O)c2cc(NC(=O)Nc3ccc(C(F)(F)F)cc3)ccc2O1	50.2 µM and 17.8 µM
C[C@@H]1CCCCO[C@H](CN(C)CC2CCCCC2)[C@H](C)CN([C@H](C)CO)C(=O)c2cc(NC(=O)Nc3ccc(C(F)(F)F)cc3)ccc2O1	5.06 µM and 44.8 µM and 31.8 µM
Cc1noc(C)c1NC(=O)Nc1cccc2c1O[C@H](CN(C)Cc1ccc(Oc3ccccc3)cc1)[C@H](C)CN([C@@H](C)CO)C2=O	57.4 µM and 36.1 µM
COc1ccc(NC(=O)Nc2cccc3c2O[C@H](CN(C)Cc2ccc(-c4ccccc4)cc2)[C@H](C)CN([C@@H](C)CO)C3=O)cc1	101 µM
C[C@@H]1CN([C@@H](C)CO)C(=O)c2cccc(NC(=O)Nc3ccccc3)c2O[C@@H]1CN(C)Cc1ccc(-c2ccccc2)cc1	3.3 µM and 1.93 µM and 5.49 µM
CO[C@H]1CN(C)C(=O)c2ccc(NC(=O)Nc3ccc(Cl)c(Cl)c3)cc2OC[C@H](C)NC[C@@H]1C	37.6 µM

SMILES	IC50
C[C@H]1CN([C@@H](C)CO)S(=O)(=O)c2ccc(C#CCC3CCCC3)cc2O[C@@H]1CN(C)C	72.5 µM
C[C@@H]1CN([C@@H](C)CO)C(=O)c2cccc(NC(=O)Nc3ccc(C(F)(F)F)cc3)c2O[C@@H]1CN(C)Cc1ccc(-c2ccccc2)cc1	0.3 µM and 1.52 µM and 0.654 µM
C[C@H]1CN([C@@H](C)CO)S(=O)(=O)c2ccc(/C=C/c3ccccc3)cc2O[C@@H]1CN(C)Cc1ccc(C(=O)O)cc1	62.8 µM
C[C@@H]1CCCCO[C@H](CN(C)Cc2ccc3c(c2)OCO3)[C@@H](C)CN([C@@H](C)CO)C(=O)c2cc(NS(=O)(=O)c3cccs3)ccc2O1	33.5 µM
O=C(NCC[C@@H]1CC[C@H](NC(=O)Nc2cc(F)ccc2F)[C@H](CO)O1)Nc1ccc(Cl)cc1	> 240 µM (inactive)
CO[C@@H](CN(C)S(=O)(=O)c1cn(C)cn1)[C@@H](C)CN(C(=O)Nc1ccc(C(F)(F)F)cc1)[C@H](C)CO	24.7 µM
C[C@@H]1CN([C@@H](C)CO)C(=O)c2cccc(NC(=O)Nc3ccc(C(F)(F)F)cc3)c2O[C@@H]1CN(C)Cc1ccc(Oc2ccccc2)cc1	0.443 µM and 0.73 µM
CO[C@H]1CN(C)C(=O)c2cc(NC(=O)Nc3ccc(Cl)c(Cl)c3)ccc2OC[C@@H](C)NC[C@@H]1C	14.5 µM and 17.6 µM
Cc1ccc(S(=O)(=O)Nc2ccc3c(c2)C(=O)N([C@@H](C)CO)C[C@H](C)[C@@H](CN(C)Cc2ccc4c(c2)OCO4)OCCCC[C@@H](C)O3)cc1	17.6 µM
CO[C@H]1CN(C)C(=O)c2cc(NC(=O)Nc3cc(Cl)cc(Cl)c3)ccc2OC[C@H](C)NC[C@@H]1C	34 µM and 55 µM
N#C[C@H]1[C@@H](c2ccc(C#Cc3ccccc3F)cc2)[C@@H](CO)N1C(=O)C1CCCCC1	157 µM
Cc1ccc(F)cc1S(=O)(=O)N[C@@H]1CCN(Cc2ccc(CC(C)C)cc2)C1	14.3 µM
C[C@H](O)C#Cc1ccc2c(c1)O[C@H](CN(C)C(=O)CN(C)C)[C@H](C)CN([C@H](C)CO)S2(=O)=O	> 240 µM (inactive)
CO[C@H]1CN(C)C(=O)c2cc(NC(=O)Nc3cc(Cl)cc(Cl)c3)ccc2OC[C@@H](C)NC[C@H]1C	31.2 µM and 25.9 µM
COc1ccc(S(=O)(=O)Nc2cccc3c2O[C@H](CN(C)Cc2ccc(-c4ccccc4)cc2)[C@H](C)CN([C@@H](C)CO)C3=O)cc1	54.2 µM
CO[C@@H]1CN(C)C(=O)c2cc(NC(=O)Nc3ccc(Cl)c(Cl)c3)ccc2OC[C@H](C)NC[C@H]1C	16 µM and 11.3 µM
CNC[C@H]1Oc2c(NC(=O)Nc3ccc(C(F)(F)F)cc3)cccc2C(=O)N([C@@H](C)CO)C[C@H]1C	36.7 µM
